In brackets after ≈: the same amount, converted by molar mass.

The values that follow come from ChEMBL document CHEMBL5532639, “Heterocyclic pyrimidine derivatives as promising antibacterial agents” (Eur J Med Chem, 2023).

Assay [1] deals with Pseudomonas aeruginosa. Put plainly: Antibacterial activity against Pseudomonas aeruginosa assessed as inhibition of microbial growth by broth micro-dilution method. It is filed as functional. Background: Dilution methods test growth across graded concentrations, often in twofold steps.
In assay [2] the test system is Escherichia coli. Put plainly: Antibacterial activity against Escherichia coli assessed as inhibition of microbial growth by broth micro-dilution method. It is filed as functional.
For assay [3], the system named is Staphylococcus aureus. Put plainly: Antibacterial activity against Staphylococcus aureus assessed as inhibition of microbial growth by broth micro-dilution method. The assay is classed as functional.
The next assay relates to Streptococcus pyogenes. Put plainly: Antibacterial activity against Streptococcus pyogenes assessed as inhibition of microbial growth by broth micro-dilution method. The assay is classed as functional.
Assay [4] deals with Bacillus subtilis. Put plainly: Antibacterial activity against Bacillus subtilis ATCC 465 assessed as reduction in bacterial growth measured after 24 hrs by Mueller-Hinton broth assay. It is filed as functional.
Assay [5] deals with Pseudomonas aeruginosa. Put plainly: Antibacterial activity against Pseudomonas aeruginosa ATCC 85327 assessed as reduction in bacterial growth measured after 24 hrs by Mueller-Hinton broth assay. The assay is classed as functional.
Assay [6] relates to Staphylococcus aureus. Put plainly: Antibacterial activity against Staphylococcus aureus assessed as bacterial growth inhibition by measuring zone of inhibition at 50 ug/ml by agar cup diffusion assay. The assay is classed as functional. As to conditions: read-out: IZ.
Assay [7] deals with Escherichia coli. Put plainly: Antibacterial activity against Escherichia coli assessed as bacterial growth inhibition by measuring zone of inhibition at 50 ug/ml by agar cup diffusion assay. It is filed as functional. The note with it: read-out: IZ.
In assay [8] the test system is Salmonella typhimurium. Put plainly: Antibacterial activity against Salmonella typhimurium DT104 assessed as bacterial growth inhibition by measuring zone of inhibition at 50 ug/ml by agar cup diffusion assay. As to conditions: Salmonella enterica, read-out: IZ. The assay is classed as functional, Salmonella enterica subsp. enterica serovar Typhimurium.
The subject of assay [9] is Bacillus subtilis. Put plainly: Antibacterial activity against Bacillus subtilis assessed as bacterial growth inhibition by measuring zone of inhibition at 50 ug/ml by agar cup diffusion assay. The assay is classed as functional. As to conditions: read-out: IZ.
The test system of assay [10] is Salmonella typhimurium. Put plainly: Antibacterial activity against Salmonella typhimurium DT104 assessed as reduction in bacterial growth. It is filed as functional, Salmonella enterica subsp. enterica serovar Typhimurium. As to conditions: Salmonella enterica.
For assay [11], the system named is Escherichia coli. Put plainly: Antibacterial activity against Escherichia coli ATCC 25922 assessed as bacterial growth inhibition. It is filed as functional.
Assay [12] deals with Staphylococcus aureus. Put plainly: Antibacterial activity against Staphylococcus aureus ATCC 3750 assessed as reduction in bacterial growth. The assay is classed as functional.
Assay [13] concerns Bacillus subtilis. Put plainly: Antibacterial activity against Bacillus subtilis 6633 assessed as reduction in bacterial growth. The assay is classed as functional.
Assay [14] relates to Staphylococcus aureus. Put plainly: microbe, parasite or virus in culture. As to conditions: ATCC 25923, 24 h.
Description: Antibacterial activity against Staphylococcus aureus ATCC 25923 assessed as reduction in bacterial growth measured after 24 hrs by Mueller-Hinton broth assay
Assay [15] deals with Escherichia coli. Put plainly: microbe, parasite or virus in culture. As to conditions: ATCC 25922, 24 h.
Description: Antibacterial activity against Escherichia coli ATCC 25922 assessed as reduction in bacterial growth measured after 24 hrs by Mueller-Hinton broth assay
The next assay relates to Enterococcus raffinosus. Put plainly: Antibacterial activity against Enterococcus raffinosus assessed as bacterial growth inhibition incubated for 24 hrs by CLSI protocol based Mueller-Hinton broth assay. The assay is classed as functional.
In assay [16] the test system is Staphylococcus aureus. Put plainly: Antibacterial activity against Staphylococcus aureus assessed as bacterial growth inhibition incubated for 24 hrs by CLSI protocol based Mueller-Hinton broth assay. It is filed as functional.
For assay [17], the system named is Bacillus subtilis. Put plainly: Antibacterial activity against Bacillus subtilis assessed as zone of inhibition at 50 microg/ml by cup plate analysis. It is filed as functional. The note with it: read-out: IZ.
The next assay deals with Bacillus pumilus. Put plainly: Antibacterial activity against Bacillus pumilus assessed as zone of inhibition at 50 microg/ml by cup plate analysis. It is filed as functional. As to conditions: read-out: IZ.
The subject of assay [18] is Escherichia coli. Put plainly: Antibacterial activity against Escherichia coli assessed as zone of inhibition at 50 microg/ml by cup plate analysis. It is filed as functional. As to conditions: read-out: IZ.
A further assay concerns Proteus vulgaris. Put plainly: Antibacterial activity against Proteus vulgaris assessed as zone of inhibition at 50 microg/ml by cup plate analysis. The assay is classed as functional. The note with it: read-out: IZ.

Consider `O=C(N[C@H](CO)[C@H](O)c1ccc([N+](=O)[O-])cc1)C(Cl)Cl` [CHLORAMPHENICOL], for which the MIC with Pseudomonas aeruginosa [1] is 50 µg/mL; in the assay with Escherichia coli [2], 50 µg/mL; with Staphylococcus aureus [3] it was 50 µg/mL; with Streptococcus pyogenes it was 50 µg/mL; in the assay on Bacillus subtilis [4], 4 µg/mL (≈ 12.4 µM); in the assay on Pseudomonas aeruginosa [5] it was 256 µg/mL (≈ 792 µM). The MIC with Salmonella typhimurium [10] is 6 µg/mL (≈ 18.6 µM); in the assay with Escherichia coli [11], 4 µg/mL (≈ 12.4 µM); in the assay on Staphylococcus aureus [12] it was 5 µg/mL (≈ 15.5 µM); in the assay with Bacillus subtilis [13], 6 µg/mL (≈ 18.6 µM); against Staphylococcus aureus [14], 8 µg/mL (≈ 24.8 µM); against Escherichia coli [15], 4 µg/mL (≈ 12.4 µM). The zone of inhibition at 50 µg/mL turned out to be 25 mm in the assay with Staphylococcus aureus [6], 18 mm in the assay with Escherichia coli [7], 24 mm in the assay on Salmonella typhimurium [8] and 20 mm in the assay on Bacillus subtilis [9].
As to `CC1(C)S[C@@H]2[C@H](NC(=O)Cc3ccccc3)C(=O)N2[C@H]1C(=O)O` [PENICILLIN G], the MIC in the assay on Enterococcus raffinosus stood at 93.5 µg/mL (≈ 280 µM); in the assay with Staphylococcus aureus [16] it was 24.4 µg/mL (≈ 73 µM); with Salmonella typhimurium [10] it was 5 µg/mL (≈ 15 µM); in the assay with Escherichia coli [11], 5 µg/mL (≈ 15 µM); with Staphylococcus aureus [12] it was 6 µg/mL (≈ 17.9 µM); with Bacillus subtilis [13], 22 µg/mL (≈ 65.8 µM). Besides, the zone of inhibition at 50 µg/mL in the assay on Bacillus subtilis [17] worked out at 25 mm; in the assay with Bacillus pumilus, 29 mm; in the assay with Escherichia coli [18] it was 26 mm; in the assay on Proteus vulgaris, 28 mm.
As to `Cc1ccc(-c2c(N)c(C#N)nc3[nH]c(=O)[nH]c(=O)c23)cc1`, the figures for the MIC in the assay with Bacillus subtilis [4], in the assay on Staphylococcus aureus [14] and against Escherichia coli [15] were 2 µg/mL (≈ 6.82 µM), 32 µg/mL (≈ 109 µM) and 512 µg/mL (≈ 1750 µM), respectively.
On to `N#Cc1nc2[nH]c(=O)[nH]c(=O)c2c(-c2ccc(Cl)cc2)c1N`, for which the MIC is 8 µg/mL (≈ 25.5 µM) in the assay with Bacillus subtilis [4], 512 µg/mL (≈ 1630 µM) with Pseudomonas aeruginosa [5], 2 µg/mL (≈ 6.38 µM) against Staphylococcus aureus [14] and 512 µg/mL (≈ 1630 µM) in the assay with Escherichia coli [15].
On to `COc1ccc(-c2nc(-c3ccccc3)nc3[nH]nc(N)c23)cc1`, for which the figures for the MIC in the assay on Enterococcus raffinosus and in the assay with Staphylococcus aureus [16] were 14.2 µg/mL (≈ 44.7 µM) and 4.2 µg/mL (≈ 13.2 µM), respectively.
